Experimental data as given in PMC12439480, “Dimeric CCK2R radiotheranostic tracers synergize with mTOR inhibition for enhanced tumor therapy” (Theranostics, 2025).
Numbered stars: 1 amine (or outer) side, 2 acyl side, 3 side chain; on linkers, the order of the positions; unused ones are H or OH. Square brackets hold non-standard residues; d marks the D form. Side chains are listed from the residue outwards. Peptide text beside a SMILES is read from it. * marks the point of attachment. DOTA = O=C(O)CN1CCN(CC(=O)O)CCN(CC(=O)*)CCN(CC(=O)O)CC1; d(γGlu) = O=C(O)[C@@H](CCC(=O)[*:2])N[*:1]; 1Nal = N[C@@H](Cc1cccc2ccccc12)C(=O)O; NMeNle = CCCC[C@H](NC)C(=O)O; PEG4 = NCCOCCOCCOCCOCCC(=O)O

Experiments:
[1] = type: physicochemical; conditions: pH 7.4
Protocol: The hydrophilicity of [^68Ga]Ga-DOTA-CCK2R-dimer and [^68Ga]Ga-DOTA-CCK-66 was assessed by determining their partition coefficients (Log D7.4) in a phosphate-buffered saline (PBS; pH 7.4)/n-octanol (1:1, v/v) system. Briefly, ~37 kBq of each radiotracer was mixed with 2 mL of the biphasic system, vortexed for 5 min, and centrifuged at 15,000 × g for 5 min. The radioactivity in 100 μL aliquots of each phase was quantified using a γ-counter (n = 5).

in vivo [2] = experiment: in vivo; set-up: species or system BALB/c nude mice; conditions: female, BALB/c nude, mouse, iv, total radioactivity
Protocol: For the micro-positron emission tomography/computed tomography (microPET/CT) imaging study, BALB/c nude mice bearing AR42J tumors (detailed in Supplementary Methods Section S3: Mouse Models) were intravenously injected with 3.7 MBq of [^68Ga]Ga-DOTA-CCK2R-dimer (≈ 120 pmol) or [^68Ga]Ga-DOTA-CCK-66 (≈ 210 pmol) (dissolved in 200 μL of saline; n = 3/group), and microPET/CT imaging was performed at 30, 60, and 120 min post-injection. The mice were anesthetized via inhalation of an isoflurane mixture approximately 5 min before each PET/CT acquisition began. To confirm tumor-specific radiopharmaceutical uptake, blocking experiments were conducted at the 1-h time point of imaging by coinjecting the mice with the radiopharmaceutical and a 400-fold excess of the lead compound.
(§1) All animal studies were approved by the Ethics Committee of Fudan University
(§2) Shanghai Cancer Center (No. FUSCC-IACUC- S2023- 0003). Five-week-old female
(§3) BALB/c nude mice were purchased from Shanghai SLAC Laboratory Animal
(§4) Company. To establish cell-derived xenograft (CDX) models, 1 × 10⁶ AR42J cells
(§5) (100 μL) were subcutaneously inoculated into the right shoulder of each mouse. […]

in vivo [3] = experiment: in vivo; set-up: species or system BALB/c nude mice; conditions: mouse; for tissue to tissue ratio at 0.5 h / tissue to tissue ratio at 1 h / tissue to tissue ratio at 2 h: female, BALB/c nude, iv, 3.7 MBq, total radioactivity
Protocol: To complement the imaging studies, biodistribution experiments were performed. AR42J tumor-bearing mice were intravenously injected with 3.7 MBq of [^68Ga]Ga-DOTA-CCK2R-dimer (≈ 120 pmol) or [^68Ga]Ga-DOTA-CCK-66 (≈ 210 pmol) (dissolved in 200 μL of saline; n = 3/group). The mice were sacrificed at 30, 60, and 120 min post-injection, and the tissues of interest were excised, weighed, and analyzed for radioactivity using a γ-counter. For blocking studies, a 400-fold excess of the lead compound was co-administered, and the mice were sacrificed at 1 h post-injection.
as §1, §2, §3, §4, §5

[4] = Tumor-to-Large intestine ratio (T/B)
[5] = Tumor-to-Small intestine ratio (T/B)

`CCCC[C@@H](C(=O)N[C@@H](CC(=O)O)C(=O)N[C@@H](Cc1cccc2ccccc12)C(N)=O)N(C)C(=O)[C@H](Cc1c[nH]c2ccccc12)NC(=O)CCOCCOCCOCCOCCNC(=O)CC[C@@H](NC(=O)CC[C@H](NC(=O)CN1CCN(CC(=O)O)CCN(CC(=O)O)CCN(CC(=O)O)CC1)C(=O)N[C@H](CCC(=O)NCCOCCOCCOCCOCCC(=O)N[C@@H](Cc1c[nH]c2ccccc12)C(=O)N(C)[C@@H](CCCC)C(=O)N[C@@H](CC(=O)O)C(=O)N[C@@H](Cc1cccc2ccccc12)C(N)=O)C(=O)O)C(=O)O` [[68Ga]Ga-DOTA-CCK2R-dimer, metal not drawn] ({DOTA}-E([d(γGlu)-PEG4-Trp-NMeNle-Asp-1Nal-NH2])[d(γGlu)][PEG4]W[NMeNle]D[1Nal]-NH2) gave a logD [1] of -3.01 ± 0.05, a tissue uptake at 0.5 h (in vivo [2]; 3.7 MBq) of 22.6 ± 0.32 %ID/g and a tissue uptake at 1 h (in vivo [2]; 3.7 MBq) of 23.9 ± 2.12 %ID/g. The tissue uptake at 2 h (in vivo [2]; 3.7 MBq) was 26.1 ± 6.21 %ID/g, the tissue uptake at 1 h (in vivo [2]) was 10.9 ± 1.73 %ID/g and the tissue to tissue ratio at 0.5 h (in vivo [3]; Tumor-to-Bladder ratio (T/B)) was 7.42 ± 4.09. The tissue to tissue ratio at 1 h (in vivo [3]; Tumor-to-Bladder ratio (T/B)) was 8.41 ± 1.6, the tissue to tissue ratio at 2 h (in vivo [3]; Tumor-to-Bladder ratio (T/B)) was 40.8 ± 16.9 and the tissue to tissue ratio at 0.5 h (in vivo [3]; Tumor-to-Blood ratio (T/B)) was 3.01 ± 1.29. The tissue to tissue ratio at 1 h (in vivo [3]; Tumor-to-Blood ratio (T/B)) was 6.8 ± 4.41, the tissue to tissue ratio at 2 h (in vivo [3]; Tumor-to-Blood ratio (T/B)) was 21.6 ± 9.41 and the tissue to tissue ratio at 0.5 h (in vivo [3]; Tumor-to-Bone ratio (T/B)) was 19.2 ± 4.91. It also gave a tissue to tissue ratio at 1 h (in vivo [3]; Tumor-to-Bone ratio (T/B)) of 18.8 ± 5.04, a tissue to tissue ratio at 2 h (in vivo [3]; Tumor-to-Bone ratio (T/B)) of 142 ± 25 and a tissue to tissue ratio at 0.5 h (in vivo [3]; Tumor-to-Brain ratio (T/B)) of 39.7 ± 24.6. The tissue to tissue ratio at 1 h (in vivo [3]; Tumor-to-Brain ratio (T/B)) was 61.8 ± 7.46, the tissue to tissue ratio at 2 h (in vivo [3]; Tumor-to-Brain ratio (T/B)) was 154 ± 17.5 and the tissue to tissue ratio at 0.5 h (in vivo [3]; Tumor-to-Heart ratio (T/B)) was 5.23 ± 2.91. For the same molecule, the tissue to tissue ratio at 1 h (in vivo [3]; Tumor-to-Heart ratio (T/B)) was 8.18 ± 0.91, the tissue to tissue ratio at 2 h (in vivo [3]; Tumor-to-Heart ratio (T/B)) was 18.5 ± 3.74 and the tissue to tissue ratio at 0.5 h (in vivo [3]; Tumor-to-Kidney ratio (T/B)) was 1.66 ± 1.37. The tissue to tissue ratio at 1 h (in vivo [3]; Tumor-to-Kidney ratio (T/B)) was 1.15 ± 0.15, the tissue to tissue ratio at 2 h (in vivo [3]; Tumor-to-Kidney ratio (T/B)) was 1.62 ± 0.29 and the tissue to tissue ratio at 0.5 h (in vivo [3]; [4]) was 8.98 ± 3.85. For the same molecule, the tissue to tissue ratio at 1 h (in vivo [3]; [4]) was 10.5 ± 1.55, the tissue to tissue ratio at 2 h (in vivo [3]; [4]) was 40.2 ± 29.4 and the tissue to tissue ratio at 0.5 h (in vivo [3]; Tumor-to-Liver ratio (T/B)) was 2.07 ± 1.51. It also gave a tissue to tissue ratio at 1 h (in vivo [3]; Tumor-to-Liver ratio (T/B)) of 3.05 ± 0.56, a tissue to tissue ratio at 2 h (in vivo [3]; Tumor-to-Liver ratio (T/B)) of 11.9 ± 4.6 and a tissue to tissue ratio at 0.5 h (in vivo [3]; Tumor-to-Lung ratio (T/B)) of 3.34 ± 2.07. It also gave a tissue to tissue ratio at 1 h (in vivo [3]; Tumor-to-Lung ratio (T/B)) of 5.56 ± 2.82, a tissue to tissue ratio at 2 h (in vivo [3]; Tumor-to-Lung ratio (T/B)) of 19.7 ± 2.99 and a tissue to tissue ratio at 0.5 h (in vivo [3]; Tumor-to-Muscle ratio (T/M)) of 11.8 ± 5.75. It also gave a tissue to tissue ratio at 1 h (in vivo [3]; Tumor-to-Muscle ratio (T/M)) of 16.5 ± 2.99, a tissue to tissue ratio at 2 h (in vivo [3]; Tumor-to-Muscle ratio (T/M)) of 33 ± 7.91 and a tissue to tissue ratio at 0.5 h (in vivo [3]; [5]) of 7.72 ± 2.49. It also gave a tissue to tissue ratio at 1 h (in vivo [3]; [5]) of 8.04 ± 2.02, a tissue to tissue ratio at 2 h (in vivo [3]; [5]) of 26 ± 11.9 and a tissue to tissue ratio at 0.5 h (in vivo [3]; Tumor-to-Spleen ratio (T/B)) of 7.04 ± 3.92. For the same molecule, the tissue to tissue ratio at 1 h (in vivo [3]; Tumor-to-Spleen ratio (T/B)) was 12.6 ± 2, the tissue to tissue ratio at 2 h (in vivo [3]; Tumor-to-Spleen ratio (T/B)) was 39.4 ± 7.6 and the tissue to tissue ratio at 0.5 h (in vivo [3]; Tumor-to-Stomach ratio (T/B)) was 4.5 ± 3.7. For the same molecule, the tissue to tissue ratio at 1 h (in vivo [3]; Tumor-to-Stomach ratio (T/B)) was 5.93 ± 0.89, the tissue to tissue ratio at 2 h (in vivo [3]; Tumor-to-Stomach ratio (T/B)) was 10.5 ± 2.83 and the tissue uptake at 0.5 h (in vivo [3]; Bladder uptake) was 0.97 ± 0.52 %ID/g. It also gave a tissue uptake at 1 h (in vivo [3]; Bladder uptake) of 1.59 ± 0.58 %ID/g, a tissue uptake at 2 h (in vivo [3]; Bladder uptake) of 0.53 ± 0.15 %ID/g and a tissue uptake at 0.5 h (in vivo [3]; Blood uptake) of 2.25 ± 1.2 %ID/g. For the same molecule, the tissue uptake at 2 h (in vivo [3]; Blood uptake) was 1.56 ± 0.97 %ID/g, the tissue uptake at 0.5 h (in vivo [3]; Bone uptake) was 0.78 ± 0.48 %ID/g and the tissue uptake at 2 h (in vivo [3]; Bone uptake) was 0.22 ± 0.18 %ID/g. It also gave a tissue uptake at 0.5 h (in vivo [3]; Brain uptake) of 0.17 ± 0.07 %ID/g, a tissue uptake at 2 h (in vivo [3]; Brain uptake) of 0.06 ± 0.04 %ID/g and a tissue uptake at 0.5 h (in vivo [3]; Heart uptake) of 1.26 ± 0.44 %ID/g. The tissue uptake at 2 h (in vivo [3]; Heart uptake) was 1.14 ± 0.39 %ID/g, the tissue uptake at 0.5 h (in vivo [3]; Kidney uptake) was 5.24 ± 3.64 %ID/g and the tissue uptake at 1 h (in vivo [3]; Kidney uptake) was 11.2 ± 1.84 %ID/g. The tissue uptake at 2 h (in vivo [3]; Kidney uptake) was 12.7 ± 3.23 %ID/g, the tissue uptake at 0.5 h (in vivo [3]; Large intestine uptake) was 1.38 ± 1.37 %ID/g and the tissue uptake at 2 h (in vivo [3]; Large intestine uptake) was 0.67 ± 0.34 %ID/g. It also gave a tissue uptake at 0.5 h (in vivo [3]; Liver uptake) of 3.45 ± 1.37 %ID/g, a tissue uptake at 1 h (in vivo [3]; Liver uptake) of 4.24 ± 0.47 %ID/g and a tissue uptake at 2 h (in vivo [3]; Liver uptake) of 2.01 ± 1.19 %ID/g. The tissue uptake at 0.5 h (in vivo [3]; Lung uptake) was 2.01 ± 0.71 %ID/g, the tissue uptake at 2 h (in vivo [3]; Lung uptake) was 1.02 ± 0.01 %ID/g and the tissue uptake at 0.5 h (in vivo [3]; Muscle uptake) was 0.57 ± 0.24 %ID/g. It also gave a tissue uptake at 2 h (in vivo [3]; Muscle uptake) of 0.62 ± 0.19 %ID/g, a tissue uptake at 0.5 h (in vivo [3]; Small intestine uptake) of 1.48 ± 0.73 %ID/g and a tissue uptake at 2 h (in vivo [3]; Small intestine uptake) of 0.86 ± 0.32 %ID/g. For the same molecule, the tissue uptake at 0.5 h (in vivo [3]; Spleen uptake) was 0.96 ± 0.4 %ID/g, the tissue uptake at 2 h (in vivo [3]; Spleen uptake) was 0.52 ± 0.05 %ID/g and the tissue uptake at 0.5 h (in vivo [3]; Stomach uptake) was 1.11 ± 0.59 %ID/g. For the same molecule, the tissue uptake at 2 h (in vivo [3]; Stomach uptake) was 1.97 ± 0.39 %ID/g, the tissue uptake at 0.5 h (in vivo [3]; Tumor uptake) was 5.81 ± 1.83 %ID/g and the tissue uptake at 2 h (in vivo [3]; Tumor uptake) was 20.2 ± 3.31 %ID/g.
